These results are taken from ChEMBL document CHEMBL3507680, “University of Dundee, Gates Library screen for HepG2 cell viability”.

Each structure is given as a SMILES string.

This data set in a line: Human HepG2 cell viability assay in 384 well format. It counts as toxicity, cell-based. Further details: dose 125 nL, time 70.5 hour; cytotoxicity at 70.5 h: concentration not given beside the values. Conditions: HepG2 cells, read-out: Inhibition.
`Cc1nc(O)c2nnn(C[C@H]3CCCN3C(=O)c3cccs3)c2n1`: the cytotoxicity at 70.5 h is -7.34%.

Turning to `CN1CCCC(c2cccc(CCC(=O)NCc3ccccn3)n2)C1` (configuration not stated), the cytotoxicity at 70.5 h was -7.64%.

For the molecule `O=C(c1cscn1)N1CCC(Cc2cnc3[nH]ccc3c2)C1` (configuration not stated), the cytotoxicity at 70.5 h was -1.17%.

Consider `Cc1nc(O)cc(C2CCCN2CCO)n1` (configuration not stated), for which the cytotoxicity at 70.5 h is -5.13%.

Take `Cc1cc(C)nc(Nc2cccc(C3CCCN(C(C)C)C3)n2)n1` (configuration not stated): the cytotoxicity at 70.5 h was -6.28%.

As to `c1ccc(OCCN2CCC(c3nnc(-c4cccnc4)o3)CC2)cc1`, the cytotoxicity at 70.5 h is -2.58%.

On to `CCc1c(C)nc2cc(C3CCN(Cc4ccc(F)cc4)C3)nn2c1O` (configuration not stated), for which the cytotoxicity at 70.5 h is -5.42%.

For the molecule `COC(=O)C1CCCN1C(=O)c1ccc(Cl)cc1F` (configuration not stated), the cytotoxicity at 70.5 h was -2.57%.

Regarding `NC(=O)C1CCN(S(=O)(=O)c2cnn(-c3ccccc3)c2)CC1`, the cytotoxicity at 70.5 h is -4.05%.

On to `COCCn1cc(C(=O)NCCS(N)(=O)=O)c2ccccc21`, for which the cytotoxicity at 70.5 h was -7.1%.

Consider `CCCn1cc(C(=O)NCCCC(N)=O)c2ccccc21`, for which the cytotoxicity at 70.5 h is -2.51%.

With `O=C(NC1(C(=O)O)CCCCC1)C1Cc2ccccc2O1` (configuration not stated), the cytotoxicity at 70.5 h was -3.59%.

As to `Cc1noc(C(C)N2CCN(CCn3ccccc3=O)CC2)n1` (configuration not stated), the cytotoxicity at 70.5 h was -1.66%.

For `Cc1noc(CNC(=O)NCCc2ccc(Cl)cc2)n1`, the cytotoxicity at 70.5 h was -3.31%.

Take `Cc1noc(CNC(=O)NCCOc2ccc(Cl)cc2)n1`: the cytotoxicity at 70.5 h is -3.2%.

As for `CC(C)CN(CC(C)C)Cn1ncc2cn(-c3ccccc3)nc2c1=O`, the cytotoxicity at 70.5 h is -2.25%.

As to `COc1c(C2CCCN2c2ncnc3c2CCC3)c(C)nn1C` (configuration not stated), the cytotoxicity at 70.5 h was -2.31%.

Turning to `COc1ccc(C(NC(=O)c2cccc[n+]2[O-])C2CC2)cc1` (configuration not stated), the cytotoxicity at 70.5 h is -3.04%.

Consider `CN(Cc1cc2ccccc2o1)S(C)(=O)=O`, for which the cytotoxicity at 70.5 h was -1.88%.

For `CCc1noc(CN(C)C2CCN(c3sccc3C#N)C2=O)n1` (configuration not stated), the cytotoxicity at 70.5 h is -2.79%.

Consider `CN(Cc1ncnn1C)C1CCN(c2sccc2C#N)C1=O` (configuration not stated), for which the cytotoxicity at 70.5 h is -1.7%.

Take `O=C(NC1(C(=O)O)CCCC1)C1Cc2cc(F)ccc2O1` (configuration not stated): the cytotoxicity at 70.5 h came to 0.608%.

Regarding `CCCC(C)CS(=O)(=O)NCCc1csc(N2CCCC2)n1` (configuration not stated), the cytotoxicity at 70.5 h was -2.73%.

On to `c1csc(-c2noc(C3CCCOC3)n2)c1` (configuration not stated), for which the cytotoxicity at 70.5 h was -2.62%.

In the case of `Cc1nn(C)c(Cl)c1C1CCCN1c1ncnc2c1CCC2` (configuration not stated), the cytotoxicity at 70.5 h came out at 18%.

As for `CC(C)c1cc(C(=O)N2CCc3ccccc3C2C(=O)O)n(C)n1` (configuration not stated), the cytotoxicity at 70.5 h is -5.14%.

With `CC(C)c1nc(C(=O)N2CCc3ccccc3C2C(=O)O)cs1` (configuration not stated), the cytotoxicity at 70.5 h is -2.12%.

For the molecule `COC(=O)C1CCCCN1C(=O)c1ccccc1F` (configuration not stated), the cytotoxicity at 70.5 h was -2.94%.

With `CC(C)CN(CC(=O)O)C(=O)c1ccc(F)cc1`, the cytotoxicity at 70.5 h was 4.28%.

For `Cc1cc(N2CCC(NS(C)(=O)=O)CC2)nc(C(C)C)n1`, the cytotoxicity at 70.5 h is -4.49%.

Consider `Cc1ccc(C(=O)Nc2ccccc2N2CCCC2)n1C`, for which the cytotoxicity at 70.5 h stood at 12%.

Take `CN(Cc1ccccc1F)C(=O)COC(=O)c1cc(Cl)c[nH]1`: the cytotoxicity at 70.5 h is 10.9%.

Consider `CN(Cc1ccco1)C(=O)CN1C(=O)c2cc(Cl)c(Cl)cc2C1=O`, for which the cytotoxicity at 70.5 h is -16.6%.

Take `O=C(Nc1cc(C(F)(F)F)c[nH]c1=O)C1CCCO1` (configuration not stated): the cytotoxicity at 70.5 h is -7.79%.

In the case of `CC(=O)N1CCC(C(=O)NCCc2c[nH]c3cc(C)ccc23)CC1`, the cytotoxicity at 70.5 h was 16.1%.

For the molecule `CC1COCCN1C(=O)COc1cccc(Oc2ccccn2)c1` (configuration not stated), the cytotoxicity at 70.5 h was -9.57%.

As to `NC(=O)CCN(CC(=O)NCc1ccccn1)c1ccc(F)cc1`, the cytotoxicity at 70.5 h is -9.69%.

Turning to `c1cc(CNCc2cccc3c2OCCO3)cc(Cn2cncn2)c1`, the cytotoxicity at 70.5 h is -10.5%.

For `CSCC(=O)N1CCOC(c2nc(C(C)(C)C)n[nH]2)C1` (configuration not stated), the cytotoxicity at 70.5 h is -0.6%.

For the molecule `N#CCCCS(=O)(=O)NC1(c2ccc(F)cc2)CC1`, the cytotoxicity at 70.5 h was -8.06%.

For `CCc1nnsc1C(=O)N1CCOC(c2nc(C(C)C)n[nH]2)C1` (configuration not stated), the cytotoxicity at 70.5 h is -2.32%.

On to `CCc1ocnc1C(=O)N1CCOC(c2nc(C(C)C)n[nH]2)C1` (configuration not stated), for which the cytotoxicity at 70.5 h is -10.4%.

Regarding `O=C(Nc1ccc(F)cc1-c1nc(C2CC2)no1)N1CC[C@@H](O)C1`, the cytotoxicity at 70.5 h was -6.37%.

For the molecule `COCc1noc(Cn2c(C3CC3)nc3ccccc32)n1`, the cytotoxicity at 70.5 h turned out to be 21.1%.

`CNC(=O)c1cccc(CN2CCN(c3ccncc3)CC2)c1`: the cytotoxicity at 70.5 h came out at 0.282%.

For `CNS(=O)(=O)C1CCN(c2cc(C(C)C)nc(C(C)C)n2)C1` (configuration not stated), the cytotoxicity at 70.5 h is -6.44%.

`CC1CN(C)CCN1C(=O)COc1cccc(Oc2ccccn2)c1` (configuration not stated): the cytotoxicity at 70.5 h was determined as 18.2%.

On to `c1ncn(Cc2ccc(CNCc3ccc4c(c3)OCCO4)cc2)n1`, for which the cytotoxicity at 70.5 h was -13.3%.

On to `CCN1CCCCC1C(=O)N1CCC(OC2CCCC2)CC1` (configuration not stated), for which the cytotoxicity at 70.5 h was 6.41%.

As to `Cc1ccc(CN(C)C(=O)CNC(=O)N2CCc3ccccc3C2)o1`, the cytotoxicity at 70.5 h worked out at 17.9%.

Take `Cc1cccc(C(=O)N(CC(=O)O)CC(C)C)c1`: the cytotoxicity at 70.5 h came out at 11.7%.

For the molecule `CCNC(=O)c1ccc(NC2CCOC3(CCCC3)C2)nn1` (configuration not stated), the cytotoxicity at 70.5 h is 17%.

Consider `CN(C1CCCCC1)S(=O)(=O)NCC1Cc2ccccc2O1` (configuration not stated), for which the cytotoxicity at 70.5 h is -1.4%.

For `CCCc1noc(C[S+]([O-])CC(=O)NCc2ccccc2)n1` (configuration not stated), the cytotoxicity at 70.5 h was determined as 15.8%.

For the molecule `Cc1c(NC(=O)CN(C)S(C)(=O)=O)cccc1OC1CCCC1`, the cytotoxicity at 70.5 h is -4%.

For `CCn1cc(S(=O)(=O)NCc2ccnc(-n3ccnc3)c2)cn1`, the cytotoxicity at 70.5 h is -6.31%.

For the molecule `O=S(=O)(NCc1ccnc(-n2ccnc2)c1)c1cncc(F)c1`, the cytotoxicity at 70.5 h is -1.94%.

For the molecule `Cc1cnn(Cc2cccc(OCC(N)=O)c2)c1`, the cytotoxicity at 70.5 h was -1.49%.

Turning to `Cc1nc(CN2CCc3ccc(S(N)(=O)=O)cc32)oc1C`, the cytotoxicity at 70.5 h was 0.0206%.

On to `Cc1cnc(C(NC(=O)NCc2nc(C3CC3)no2)C2CC2)s1` (configuration not stated), for which the cytotoxicity at 70.5 h was -1.45%.

With `CS(=O)(=O)NCC1Cc2ccccc2O1` (configuration not stated), the cytotoxicity at 70.5 h was -0.512%.

Regarding `OC(c1cnn(-c2ccccc2)c1)C(F)(F)F` (configuration not stated), the cytotoxicity at 70.5 h was -1.66%.

For the molecule `CC(C)c1nnc(CN2CCCc3ccc(S(N)(=O)=O)cc32)o1`, the cytotoxicity at 70.5 h was -0.377%.

For `O=C(NCCN1CCOCC1)c1cc(-c2ccc(Cl)s2)[nH]n1`, the cytotoxicity at 70.5 h was -1.44%.

Take `Cc1noc(C)c1CC(=O)NCCN1CCN(S(C)(=O)=O)CC1`: the cytotoxicity at 70.5 h stood at 0.0227%.

In the case of `Cc1noc(C)c1C(=O)NCCN1CCOCC1`, the cytotoxicity at 70.5 h came out at 1.59%.

As for `O=C(CS(=O)(=O)c1ncccc1Cl)NC1CCCc2ccccc21` (configuration not stated), the cytotoxicity at 70.5 h amounted to 12%.

Turning to `N#Cc1cnc(NC2CCN(C(=O)C3CCCCC3)CC2)c(Cl)c1`, the cytotoxicity at 70.5 h was -0.508%.

With `COC(=O)c1cc(NCC(=O)NC(N)=O)cc(C(F)(F)F)c1`, the cytotoxicity at 70.5 h was determined as 0.625%.

As for `CC(C)(CNC(=O)Nc1cccc(-c2nccs2)c1)C(N)=O`, the cytotoxicity at 70.5 h was -0.236%.

In the case of `CC(C)(CNC(=O)Nc1cccc(-c2cccs2)c1)C(N)=O`, the cytotoxicity at 70.5 h was determined as 0.351%.

`Cc1cccc(CNC(Cn2cncn2)c2ccccc2)c1C` (configuration not stated): the cytotoxicity at 70.5 h was 1.21%.

With `CC(C)CC(NC(=O)c1cccc(F)c1F)C(=O)Nc1cc[nH]n1` (configuration not stated), the cytotoxicity at 70.5 h was -1.3%.

Turning to `N#Cc1c(Cl)nsc1NCc1ccc(N2CCSCC2)cc1`, the cytotoxicity at 70.5 h is 12.7%.

`O=C(CNC(=O)Nc1cccc(-c2nccs2)c1)NCCO`: the cytotoxicity at 70.5 h is -2.39%.

As for `Cc1cccc(N2CCN(CCC(=O)NCc3nnc[nH]3)CC2)c1`, the cytotoxicity at 70.5 h was -1.67%.

On to `O=C(CS(=O)(=O)c1cccc[n+]1[O-])NC1CCCc2ccccc21` (configuration not stated), for which the cytotoxicity at 70.5 h came to 1.9%.

In the case of `Cc1cn2c(CN(C)C(=O)c3cnc(N)c(Cl)c3)c(C)nc2s1`, the cytotoxicity at 70.5 h came out at 11.9%.

Turning to `Cc1nnc(NCc2ccc(N3CCC(CO)CC3)cc2)c(C#N)c1C`, the cytotoxicity at 70.5 h is -1.7%.

With `N#Cc1cccc(CN(CC(=O)N2CCCC2)CC2CCCO2)c1` (configuration not stated), the cytotoxicity at 70.5 h is 0.804%.

Take `COc1ccc(CNC(Cn2cncn2)c2ccccc2)cc1C` (configuration not stated): the cytotoxicity at 70.5 h is -4.57%.

For the molecule `O=C(CN(Cc1cccc(F)c1)CC1CCCO1)N1CCCC1` (configuration not stated), the cytotoxicity at 70.5 h is 13.7%.

Regarding `Cc1cc(CN(C)CCN(C)c2ccccc2)no1`, the cytotoxicity at 70.5 h was 0.0635%.

Take `CCSCCC(C)N(C)C(=O)c1ccc(C)o1` (configuration not stated): the cytotoxicity at 70.5 h was -1.62%.

`N#Cc1csc(CN(CC(=O)N2CCCC2)CC2CCCO2)c1` (configuration not stated): the cytotoxicity at 70.5 h was 0.764%.

In the case of `CN(CCCNC(=O)Nc1ccc(C#N)cc1)CC(F)(F)F`, the cytotoxicity at 70.5 h came to 40.9%.

`CN(CCCNC(=O)c1ccc(C#N)cc1)CC(F)(F)F`: the cytotoxicity at 70.5 h stood at 5.13%.

In the case of `Cc1ccc(C)c(Oc2ccc(CNC(=O)C3CCS(=O)(=O)C3)cn2)c1` (configuration not stated), the cytotoxicity at 70.5 h was -10.1%.

Turning to `COC(=O)c1ccc(OCC(=O)N(C)Cc2ccsc2)c(OC)c1`, the cytotoxicity at 70.5 h is -5.54%.

As to `COc1ccc(CC(=O)N2CCC(c3nncn3C)CC2)cc1F`, the cytotoxicity at 70.5 h was -10.5%.

As for `Cc1cc(C)c(CNC(=O)N2CCC(N3CCCCC3)CC2)c(=O)[nH]1`, the cytotoxicity at 70.5 h was -7.65%.

With `Cc1nc(COc2ccc(OCC(N)=O)cc2)oc1C`, the cytotoxicity at 70.5 h is -8.19%.

On to `O=C1CN(C(=O)c2cc(Cl)ccc2F)c2ccncc2N1`, for which the cytotoxicity at 70.5 h was -8.1%.

Take `COc1ccc(Br)cc1CC(=O)Nc1cc(C)n[nH]1`: the cytotoxicity at 70.5 h is 25.5%.

As to `Cc1nc(COc2ccc(OC(C)C(N)=O)cc2)oc1C` (configuration not stated), the cytotoxicity at 70.5 h was -0.152%.

`Cc1cc(C)c(CNC(=O)N2CCC(N3CCNC3=O)CC2)c(C)c1`: the cytotoxicity at 70.5 h is -7.95%.

In the case of `Cc1cc(C(=O)N2CC(=O)Nc3cnccc32)c(Cl)cc1F`, the cytotoxicity at 70.5 h was -1.87%.

`CC(C)c1nsc(N2CCOC3(CCCC3)C2)n1`: the cytotoxicity at 70.5 h was -2.46%.

Consider `O=C(c1cnc(NCCC2CCCO2)c(Cl)c1)N1CCOCC1` (configuration not stated), for which the cytotoxicity at 70.5 h is -7.98%.

With `COCCN1CCC(NC(=O)NCC2(c3cccc(F)c3)CC2)C1` (configuration not stated), the cytotoxicity at 70.5 h was -8.45%.

`CC1CN(C(=O)NCc2cccc(C#N)c2)CCN1CC(F)(F)F` (configuration not stated): the cytotoxicity at 70.5 h was -7.28%.

As for `Cc1cc(C)nc(N2CCN(Cc3nccn3C)CC2)n1`, the cytotoxicity at 70.5 h was -2.76%.
